Experimental data reported in patent US9475841B2, “Melanoma antigen peptide and uses thereof” (INSERM (INSTITUT NATIONAL DE LA SANTE ET DE LA RECHERCHE …, priority 2012, dated 2016).

How the values were obtained:
Format in all cases: cell-based, human
[1] = tested on: MELOE-1 specific CD4 T cells; assay: MELOE-1 CD4+ T cell responses in PBMC from melanoma patients: restimulation with peptides, CD4/IFN-γ (Th1) and CD4/IL4 (Th2) staining; conditions: for mean % of cytokine producing CD4 T cells, in positive microcultures (IFN-γ): Th1; for mean % of cytokine producing CD4 T cells, in positive microcultures (IL4): Th2; for Th1 responses (IFN-γ positive microcultures) / Th2 responses (IL4 positive microcultures): positive/tested microcultures
Method: PBMC from melanoma patients were stimulated with 10 μM of MELOE-1. After 14 days, the presence of CD4 T cells specific for the different regions of MELOE-1 was assessed by restimulating cells with MELOE-12-21, MELOE-111-30 and MELOE-122-46 peptides, followed by CD4/IFN-γ double staining for the detection of Th1 responses, and by CD4/IL4 double staining for Th2 responses. Between brackets is indicated the mean % of cytokine producing CD4 T cells, in positive microcultures.
(§1) PBMC from healthy donors or melanoma patients (2·10^5 cells/well) were cultured for 14 days with 10 μM of MELOE-1 whole antigen (46 amino acids) in RPMI medium supplemented with 8% HS, 50 IU/ml of rIL-2 (Chiron, France) and L-Glutamin, in 96-well multiplates. Microcultures were then restimulated individually with each overlapping peptide (MELOE-12-21, MELOE-111-30, MELOE-118-37, MELOE-12646 or MELOE-122-46 for melanoma patients) in the presence of 10 μg/mL brefeldin A for 5 hours and the percentage of CD4^+ specific T cells was assessed by TNF-α, IFN-γ or IL-4 intracellular staining. A negative control without peptide was included in all experiments.
In order to confirm the immunogenicity of each MELOE-1 regions in melanoma patients, we stimulated melanoma patients PBMC with the MELOE-1 whole protein, and tested the reactivity of stimulated lymphocytes towards the three most immunogenic regions: 2-21, 11-30, and 22-46. For this study, instead of challenging microcultures with the 18-37 peptide, that appeared poorly immunogenic, we extended the C-terminus region from 26-46 to 22-46, in order to also detect responses to our previously described HLA-DR11-restricted epitope (24-37). […] We tested the induction of CD4 specific responses from MELOE-1 stimulated PBMC of […] melanoma patients. We documented CD4 responses specific for the central region of MELOE-1 (11-30) for 7/9 patients, whereas responses specific for MELOE-12-21 and MELOE-122-46 were respectively detected in 4/9 and 5/9 patients (Table III). These responses were mainly Th1 responses (IFN-g production) while less frequent Th2 responses specific for the three regions of MELOE-1 were detected in 3/9 patients for MELOE-12-21, 2/9 patients for MELOE-111-30 and 5/9 patients for MELOE-122-46 (Table III). […] Concerning Th2 responses, much less frequent, the C-term region appeared to induce more frequently the growth of IL-4 producing CD4 T cells than the two other regions (FIG. 2A). […] In summary, stimulation of patient's PBMC with MELOE-1 induced Th1 responses specific for diverse epitopes located all along the protein sequence, and among the different regions, the central region (11-30) and the C-term region (22-46) appeared to be especially immunogenic in term of frequency of responses.

[2] = tested on: CD4 T cell clone 4E2-DQβ1*0201; assay: Cytokine profile of CD4 T cell clone stimulated with cognate peptide (intracellular staining); conditions: cognate peptide 10 μM, 5 hours
Method: Lymphocytes were stimulated for 5 hours in the presence of brefeldin A (10 μg/mL) either with peptide alone (10 μM) in an autopresentation assay or with B-EBV or HLA-class II expressing melanoma cells pulsed 2 hours with the cognate peptide, at a ratio 1:2. In some experiments, blocking mAb against HLA-DP (clone B7.21 from Dr Charron, UMR940, Paris), HLA-DQ (clone SPVL3, Beckman Coulter) or HLA-DR (clone L243, BD Biosciences) were added at a concentration of 12.5 μg/ml. Cells were then stained with APC-conjugated anti-CD4 mAb, fixed with 4% paraformaldehyde, labeled with PE-conjugated anti-cytokine mAb and analyzed by flow cytometry.
We also documented the T helper profile of each T cell clone, by stimulating the CD4 T cell clones with the cognate peptide, and analyzing cytokine production. All the clones expressed Th1 cytokines (TNFα, IFNγ, IL2 and GM-CSF). On the contrary, these clones differ in their expression of Th2 cytokines. Indeed, the two DQ2 restricted T cell clones (9C12 and 4E2) and the DR1 restricted one (5F9) also strongly express two Th2 cytokines (IL4, and IL13), whereas the DR11-restricted T cell clone only weakly expressed IL4 (Table IV). None of the CD4 T cell expresses IL10 or IL5 at a significant level.

[3] = tested on: MELOE-1 specific CD4+ T cells; assay: MELOE-1 CD4+ T cell responses in PBMC from healthy donors: restimulation of microcultures with overlapping peptides, CD4/TNF-α staining; conditions: for Microcultures containing MELOE-1 specific CD4+ T cells (TNF-α production): positive/tested microcultures; for donors in which CD4 responses against the region were detected: seven healthy donors
Method: PBMC from healthy donors were stimulated with 10 μM of MELOE-1. After 14 days, the presence of CD4 T cells specific for the different regions of MELOE-1 was assessed by restimulating cells with MELOE-12-21, MELOE-111-30, MELOE-118-37 and MELOE-126-46 peptides, followed by CD4/TNF-α double staining and flow cytometry analysis. Between brackets is indicated the mean % of TNF-α producing CD4 T cells, in positive microcultures. NA: not available.
as §1
Our purpose was to look for the existence of class II helper epitopes all along MELOE-1 sequence (SEQ ID NO:20), in order to document the immunogenicity of the different regions of this melanoma antigen. We stimulated 2·10^7 PBMC from seven healthy donors with MELOE-1 whole antigen and tested, after a 14-day culture period the presence of CD4 T cells specific for each region of the protein. Microcultures were screened for TNFα production by CD4+ T cells, after restimulation with four MELOE-1 derived overlapping peptides (Table I), in an autopresentation assay. […] On the contrary, the central region 18-37, containing an already described DR11-restricted epitope (24-37) located just at the end of this 20-mer peptide (Rogel et al., 2011), induced specific responses in microcultures deriving from only 2/7 donors (HD9 and HD17, both expressing the DR11 element). In these two donors, we detected 6 and 7% of positive microcultures, containing between 0.6 to 3.7% of TNFα producing CD4 T cells.

[4] = donor HD9 (DPβ1*0902/1501, DQβ1*0301, DRβ1*1104/1201)
[5] = donor HD17 (DPβ1*0401/0301, DQβ1*0301/0603, DRβ1*1101/1301)
[6] = donor HD22 (DPβ1*0401/1101, DQβ1*0202, DRβ1*0701)
[7] = donor HD24 (DPβ1*0401/0101, DQβ1*0501/0602, DRβ1*0101/1501)
[8] = donor HD25 (DPβ1*0401/0402, DQβ1*0201, DRβ1*0301)
[9] = donor HD27 (DQβ1*501/0201, DRβ1*0101/0301)

Sequence: AACPPWHPSERISSTLNDECWPASL [MELOE-122-46]
- Th1 responses, % of tested microcultures ([1]; 576 tested microcultures from melanoma patients, IFN-γ): 9.6%
- patients in which Th2 responses were detected ([1]; melanoma patients, IL4): 5/9
- patients in which CD4 responses specific for the region were detected ([1]; melanoma patients, Table III, Th1 (IFN-γ)): 5/9
- mean % of cytokine producing CD4 T cells, in positive microcultures (IFN-γ) ([1]; patient Pt ≠ 1): (4.8% ± 7.2)
- mean % of cytokine producing CD4 T cells, in positive microcultures (IL4) ([1]; patient Pt ≠ 1): (0.8% ± 0.3)
- Th1 responses (IFN-γ positive microcultures) ([1]; patient Pt ≠ 1): 11/48
- Th2 responses (IL4 positive microcultures) ([1]; patient Pt ≠ 1): 4/48
- mean % of cytokine producing CD4 T cells, in positive microcultures (IFN-γ) ([1]; patient Pt ≠ 2): (0.6% ± 0.02)
- Th1 responses (IFN-γ positive microcultures) ([1]; patient Pt ≠ 2): 2/96
- Th2 responses (IL4 positive microcultures) ([1]; patient Pt ≠ 2): 0/96
- Th1 responses (IFN-γ positive microcultures) ([1]; patient Pt ≠ 3 (DPβ1*0201/2001, DQβ1*0303/0501, DRβ1*0101/0701)): 4/96
- mean % of cytokine producing CD4 T cells, in positive microcultures (IFN-γ) ([1]; patient Pt ≠ 3): (1.9% ± 1.3)
- Th2 responses (IL4 positive microcultures) ([1]; patient Pt ≠ 3): 0/96
- Th1 responses (IFN-γ positive microcultures) ([1]; patient Pt ≠ 4): 0/48
- Th2 responses (IL4 positive microcultures) ([1]; patient Pt ≠ 4): 0/48
- mean % of cytokine producing CD4 T cells, in positive microcultures (IL4) ([1]; patient Pt ≠ 5): (0.8%)
- Th1 responses (IFN-γ positive microcultures) ([1]; patient Pt ≠ 5): 0/48
- Th2 responses (IL4 positive microcultures) ([1]; patient Pt ≠ 5): 1/48
- Th1 responses (IFN-γ positive microcultures) ([1]; patient Pt ≠ 6): 0/48
- Th2 responses (IL4 positive microcultures) ([1]; patient Pt ≠ 6): 0/48
- mean % of cytokine producing CD4 T cells, in positive microcultures (IFN-γ) ([1]; patient Pt ≠ 7): (2.9% ± 3.5)
- mean % of cytokine producing CD4 T cells, in positive microcultures (IL4) ([1]; patient Pt ≠ 7): (1.5% ± 0.7)
- Th1 responses (IFN-γ positive microcultures) ([1]; patient Pt ≠ 7): 28/48
- Th2 responses (IL4 positive microcultures) ([1]; patient Pt ≠ 7): 7/48
- mean % of cytokine producing CD4 T cells, in positive microcultures (IFN-γ) ([1]; patient Pt ≠ 8): (0.5%)
- mean % of cytokine producing CD4 T cells, in positive microcultures (IL4) ([1]; patient Pt ≠ 8): (0.6%)
- Th1 responses (IFN-γ positive microcultures) ([1]; patient Pt ≠ 8): 1/48
- Th2 responses (IL4 positive microcultures) ([1]; patient Pt ≠ 8): 1/48
- mean % of cytokine producing CD4 T cells, in positive microcultures (IL4) ([1]; patient Pt ≠ 9): (0.7% ± 0.15)
- Th1 responses (IFN-γ positive microcultures) ([1]; patient Pt ≠ 9): 0/48
- Th2 responses (IL4 positive microcultures) ([1]; patient Pt ≠ 9): 3/48

Sequence: PWHPSERISSTLNDECWPASL [MELOE-126-46]
- Cytokine profile: GM-CSF [2]: GM-CSF^high
- Cytokine profile: IFN [2]: IFN^high
- Cytokine profile: IL2 [2]: IL2^high
- Cytokine profile: IL4 [2]: IL4^high
- Cytokine profile: IL5 [2]: IL5^low
- Cytokine profile: IL10 [2]: IL10^neg
- Cytokine profile: IL13 [2]: IL13^high
- Cytokine profile: TNF [2]: TNF^high
- mean % of TNF-α producing CD4 T cells, in positive microcultures ([3]; donor HD9): (1.5% ± 0.5)
- Microcultures containing MELOE-1 specific CD4+ T cells (TNF-α production) [3, 4]: 5/96
- mean % of TNF-α producing CD4 T cells, in positive microcultures ([3]; donor HD17): (5.2% ± 4.1)
- Microcultures containing MELOE-1 specific CD4+ T cells (TNF-α production) [3, 5]: 10/96
- mean % of TNF-α producing CD4 T cells, in positive microcultures ([3]; donor HD22): (1% ± 0.1)
- Microcultures containing MELOE-1 specific CD4+ T cells (TNF-α production) [3, 6]: 2/96
- Microcultures containing MELOE-1 specific CD4+ T cells (TNF-α production) [3, 7]: 0/96
- mean % of TNF-α producing CD4 T cells, in positive microcultures ([3]; donor HD25): (1.1% ± 0.9)
- Microcultures containing MELOE-1 specific CD4+ T cells (TNF-α production) [3, 8]: 15/96
- Microcultures containing MELOE-1 specific CD4+ T cells (TNF-α production) [3, 9]: 0/96
- Microcultures containing MELOE-1 specific CD4+ T cells (TNF-α production) ([3]; donor HD28 (DRβ1*0301)): 0/96
- donors in which CD4 responses against the region were detected [3]: 4 out of 7

Sequence: PSEGAACPPWHPSERISSTL [MELOE-118-37]
- mean % of TNF-α producing CD4 T cells, in positive microcultures ([3]; donor HD9): (1.4% ± 0.6)
- Microcultures containing MELOE-1 specific CD4+ T cells (TNF-α production) [3, 4]: 6/96
- mean % of TNF-α producing CD4 T cells, in positive microcultures ([3]; donor HD17): (3% ± 0.7)
- Microcultures containing MELOE-1 specific CD4+ T cells (TNF-α production) [3, 5]: 7/96
- Microcultures containing MELOE-1 specific CD4+ T cells (TNF-α production) [3, 6]: 0/96
- Microcultures containing MELOE-1 specific CD4+ T cells (TNF-α production) [3, 7]: 0/96
- Microcultures containing MELOE-1 specific CD4+ T cells (TNF-α production) [3, 8]: 0/96
- Microcultures containing MELOE-1 specific CD4+ T cells (TNF-α production) [3, 9]: 0/96
- Microcultures containing MELOE-1 specific CD4+ T cells (TNF-α production) ([3]; donor HD28 (DRβ1*0301)): 0/48
- % of positive microcultures ([3]; healthy donor HD9 (first of the two donors named)): 6%
- % of positive microcultures ([3]; healthy donor HD17 (second of the two donors named)): 7%
- donors in which CD4 responses against the region were detected [3]: 2/7
